Experimental data as given in patent US10961242B2, “Compounds as autotaxin inhibitors and pharmaceutical compositions comprising the same” (LegoChem Biosciences, Inc., priority 2018, dated 2021).
Structures can show the parent of a compound that is named as a salt.

These compounds were tested against human ENPP2 (Homo sapiens (Human), UniProt Q13822) (assay: Inhibitory activity on human ENPP2 (FS-3 assay)). Details: human ENPP2, FS-3 substrate, 30 min at 37° C.; read-out: IC50.
Type: biochemical
Method: Two-fold dilution of each test compound solution (10 μM, 100% dimethyl sulfoxide) is carried out on 96-well V bottom plate (Costar 3363). After ten-fold dilution of each the test compound solution (100% dimethyl sulfoxide) with deionized distilled water, 10 μL of the diluted each mpound solution (10% dimethyl sulfoxide) was aliquoted to a black flat bottom 96-well plate (Costar 3915).

| Structure (SMILES) | IC50 |
| --- | --- |
| O=C(Cc1nnc(-c2cnc(NC3Cc4ccccc4C3)nc2)o1)N1CCc2[nH]c(=O)ccc2C1 [Compound 39, 6-[2-(5-{2-[(2,3-dihydro-1H-inden-2-yl)amino]pyrimidin-5-yl}-1,3,4-oxadiazol-2-yl)acetyl]-1,2,5,6,7,8-hexahydro-1,6-naphthyridin-2-one] | 10.6 nM |
| O=C(CCN1CCN(c2cnc(NC3Cc4ccccc4C3)nc2)CC1)N1CCc2[nH]nnc2C1 [Compound 23] | 6.8 nM |
| O=C(Cc1nnc(-c2cnc(NC3Cc4ccccc4C3)nc2)o1)N1CCc2[nH]c(=O)[nH]c2C1 [Compound 40, 5-[2-(5-{2-[(2,3-dihydro-1H-inden-2-yl)amino]pyrimidin-5-yl}-1,3,4-oxadiazol-2-yl)acetyl]-1H,2H,3H,4H,5H,6H,7H-imidazo[4,5-c]pyridin-2-one] | 10.1 nM |
| O=c1[nH]c2ccc(C3=NOC(CN4CCN(c5cnc(NC6Cc7ccccc7C6)nc5)CC4)C3)cc2o1 (centres unmarked) [Compound 31, 6-{5-[(4-{2-[(2,3-dihydro-1H-inden-2-yl)amino]pyrimidin-5-yl}piperazin-1-yl)methyl]-4,5-dihydro-1,2-oxazol-3-yl}-2,3-dihydro-1,3-benzoxazol-2-one] | 11.8 nM |
| O=C(NCC(=O)N1CCc2[nH]nnc2C1)c1cnc(NCc2cccc(OC(F)(F)F)c2)nc1 [Compound 3, N-(2-oxo-2-{1H,4H,5H,6H,7H-[1,2,3]triazolo[4,5-c]pyridin-5-yl}ethyl)-2-({[3-(trifluoromethoxy)phenyl]methyl}amino)pyrimidine-5-carboxamide] | 14.3 nM |
| CC(NC(=O)c1cnc(NCc2cccc(OC(F)(F)F)c2)nc1)C(=O)N1CCc2[nH]nnc2C1 (centres unmarked) [Compound 4, N-(1-oxo-1-{1H,4H,5H,6H,7H-[1,2,3]triazolo[4,5-c]pyridin-5-yl}propan-2-yl)-2-({[3-(trifluoromethoxy)phenyl]methyl}amino)pyrimidine-5-carboxamide] | 18.9 nM |
| O=C(CN1CCN(c2cnc(NCc3cccc(OC(F)(F)F)c3)nc2)CC1)N1CCc2[nH]nnc2C1 [Compound 21, 1-{1H,4H,5H,6H,7H-[1,2,3]triazolo[4,5-c]pyridin-5-yl}-2-{4-[2-({[3-(trifluoromethoxy)phenyl]methyl}amino)pyrimidin-5-yl]piperazin-1-yl}ethan-1-one] | 4.1 nM |
| O=C1O[C@@H](CN2CCN(c3cnc(NC4Cc5ccccc5C4)nc3)CC2)CN1c1ccc2[nH]c(=O)oc2c1 [Compound 26, 6-[(5S)-5-[(4-{2-[(2,3-dihydro-1H-inden-2-yl)amino]pyrimidin-5-yl}piperazin-1-yl)methyl]-2-oxo-1,3-oxazolidin-3-yl]-2,3-dihydro-1,3-benzoxazol-2-one] | 13.1 nM |
| Nc1nc2c(s1)CCN(C(=O)Cc1nnc(-c3cnc(NC4Cc5ccccc5C4)nc3)o1)C2 [Compound 43, 1-{2-amino-4H,5H,6H,7H-[1,3]thiazolo[4,5-c]pyridin-5-yl}-2-(5-{2-[(2,3-dihydro-1H-inden-2-yl)amino]pyrimidin-5-yl}-1,3,4-oxadiazol-2-yl)ethan-1-one] | 11.2 nM |
| O=C(Cc1nnc(-c2cnc(NC3Cc4ccccc4C3)nc2)o1)N1CCc2cn[nH]c2C1 [Compound 44, 2-(5-{2-[(2,3-dihydro-1H-inden-2-yl)amino]pyrimidin-5-yl}-1,3,4-oxadiazol-2-yl)-1-{1H,4H,5H,6H,7H-pyrazolo[3,4-c]pyridin-6-yl}ethan-1-one] | 16.6 nM |
| O=C(Cc1nnc(-c2cnc(NC3Cc4ccccc4C3)nc2)o1)N1CCc2[nH]ncc2C1 [Compound 42, 2-(5-{2-[(2,3-dihydro-1H-inden-2-yl)amino]pyrimidin-5-yl}-1,3,4-oxadiazol-2-yl)-1-{1H,4H,5H,6H,7H-pyrazolo[4,3-c]pyridin-5-yl}ethan-1-one] | 8.1 nM |

The next lines start with the values.

| IC50 | Structure (SMILES) |
| --- | --- |
| 2.3 nM | CCc1nn(CC(=O)N2CCN(C(=O)CO)CC2)cc1-c1cnc(NC2Cc3ccccc3C2)nc1 [Compound 94, 1-{4-[2-(4-{2-[(2,3-dihydro-1H-inden-2-yl)amino]pyrimidin-5-yl}-3-ethyl-1H-pyrazol-1-yl)acetyl]piperazin-1-yl}-2-hydroxyethan-1-one] |
| 3.1 nM | O=C(CN1CCN(c2cnc(NC3Cc4ccccc4C3)nc2)CC1)c1ccc2[nH]c(=O)oc2c1 [Compound 28, 6-[2-(4-{2-[(2,3-dihydro-1H-inden-2-yl)amino]pyrimidin-5-yl}piperazin-1-yl)acetyl]-2,3-dihydro-1,3-benzoxazol-2-one] |
| 2.2 nM | O=C(CCc1ccc2[nH]c(=O)oc2c1)N1CCC(c2cnc(NC3Cc4ccccc4C3)nc2)CC1 [Compound 16, 6-[3-(4-{2-[(2,3-dihydro-1H-inden-2-yl)amino]pyrimidin-5-yl}piperidin-1-yl)-3-oxopropyl]-2,3-dihydro-1,3-benzoxazol-2-one] |
| 3.6 nM | O=C(CN1CCc2[nH]nnc2C1)N1CCN(c2cnc(NCc3cccc(OC(F)(F)F)c3)nc2)CC1 [Compound 18] |
| 2.4 nM | CCN1CCN(Cc2nn(CC(=O)N3CCc4[nH]nnc4C3)cc2-c2cnc(NC3Cc4ccccc4C3)nc2)CC1 [Compound 91, 2-(4-{2-[(2,3-dihydro-1H-inden-2-yl)amino]pyrimidin-5-yl}-3-[(4-ethylpiperazin-1-yl)methyl]-1H-pyrazol-1-yl)-1-{1H,4H,5H,6H,7H-[1,2,3]triazolo[4,5-c]pyridin-5-yl}ethan-1-one] |
| 3.9 nM | O=c1[nH]c2ccc(/C(CN3CCN(c4cnc(NC5Cc6ccccc6C5)nc4)CC3)=N\O)cc2o1 [Compound 29, 6-[(1E)-2-(4-{2-[(2,3-dihydro-1H-inden-2-yl)amino]pyrimidin-5-yl}piperazin-1-yl)-1-(hydroxyimino)ethyl]-2,3-dihydro-1,3-benzoxazol-2-one] |
| 4 nM | O=C(Cc1nnc(-c2cnc(NC3Cc4ccccc4C3)nc2)o1)N1CCc2nc[nH]c2C1 [Compound 38, 2-(5-{2-[(2,3-dihydro-1H-inden-2-yl)amino]pyrimidin-5-yl}-1,3,4-oxadiazol-2-yl)-1-{3H,4H,5H,6H,7H-imidazo[4,5-c]pyridin-5-yl}ethan-1-one] |
| 3.3 nM | O=C(NCCC(=O)N1CCc2[nH]nnc2C1)c1cnc(NC2Cc3ccccc3C2)nc1 [Compound 1, 2-[(2,3-dihydro-1H-inden-2-yl)amino]-N-(3-oxo-3-{1H,4H,5H,6H,7H-[1,2,3]triazolo[4,5-c]pyridin-5-yl}propyl)pyrimidine-5-carboxamide] |
| 2.1 nM | O=C(Cn1cc(-c2cnc(NC3Cc4ccccc4C3)nc2)c(CCN2CCOCC2)n1)N1CCc2[nH]nnc2C1 [Compound 93, 2-(4-{2-[(2,3-dihydro-1H-inden-2-yl)amino]pyrimidin-5-yl}-3-[2-(morpholin-4-yl)ethyl]-1H-pyrazol-1-yl)-1-{1H,4H,5H,6H,7H-[1,2,3]triazolo[4,5-c]pyridin-5-yl}ethan-1-one] |
| 3.4 nM | O=C(CN1CCc2[nH]nnc2C1)N1CCN(c2cnc(NC3Cc4ccccc4C3)nc2)CC1 [Compound 17, 1-(4-{2-[(2,3-dihydro-1H-inden-2-yl)amino]pyrimidin-5-yl}piperazin-1-yl)-2-{1H,4H,5H,6H,7H-[1,2,3]triazolo[4,5-c]pyridin-5-yl}ethan-1-one] |
| 2.3 nM | O=C(Cn1cc(-c2cnc(NC3Cc4ccccc4C3)nc2)c(CN2CCN(CC(F)F)CC2)n1)N1CCc2[nH]nnc2C1 [Compound 92, 2-(3-{[4-(2,2-difluoroethyl)piperazin-1-yl]methyl}-4-{2-[(2,3-dihydro-1H-inden-2-yl)amino]pyrimidin-5-yl}-1H-pyrazol-1-yl)-1-{1H,4H,5H,6H,7H-[1,2,3]triazolo[4,5-c]pyridin-5-yl}ethan-1-one] |
| 2.9 nM | O=C(Cc1nnc(-c2ccc(NC3Cc4ccccc4C3)nc2)o1)N1CCc2[nH]nnc2C1 [Compound 36, 2-(5-{6-[(2,3-dihydro-1H-inden-2-yl)amino]pyridin-3-yl}-1,3,4-oxadiazol-2-yl)-1-{1H,4H,5H,6H,7H-[1,2,3]triazolo[4,5-c]pyridin-5-yl}ethan-1-one] |
| 3.5 nM | O=C(c1cnc(NCc2cccc(OC(F)(F)F)c2)nc1)N1CCC2(CC1)CC(CN1CCc3[nH]nnc3C1)=NO2 [Compound 8, 5-(3-{1H,4H,5H,6H,7H-[1,2,3]triazolo[4,5-c]pyridin-5-ylmethyl}-1-oxa-2,8-diazaspiro[4,5]dec-2-ene-8-carbonyl)-N-{[3-(trifluoromethoxy)phenyl]methyl}pyrimidin-2-amine] |
| 2.6 nM | O=C(Cn1cc(-c2cnc(NC3Cc4ccccc4C3)nc2)c(CN2CCCNCC2)n1)N1CCc2[nH]nnc2C1 [Compound 90, 2-[3-(1,4-diazepan-1-ylmethyl)-4-{2-[(2,3-dihydro-1H-inden-2-yl)amino]pyrimidin-5-yl}-1H-pyrazol-1-yl]-1-{1H,4H,5H,6H,7H-[1,2,3]triazolo[4,5-c]pyridin-5-yl}ethan-1-one. HCl] |
| 2.4 nM | O=C(Cc1nnc(-c2cnc(NC3Cc4ccccc4C3)nc2)o1)N1CCc2[nH]nnc2C1 [Compound 33, 2-(5-(2-((2,3-dihydro-1H-inden-2-yl)amino)pyrimidin-5-yl)-1,3,4-oxadiazol-2-yl)-1-(1,4,6,7-tetrahydro-5H-[1,2,3]triazolo[4,5-c]pyridin-5-yl) ethan-1-one] |
